Consider 23 compounds from patent publication US20140155415A1, “BENZ[…] BENZODIOXINE COMPOUNDS THAT INTERACT WITH G[…] FOR THE TREATMENT OF DIABETES” (priority 2011, published 2014).

Where only a bound is given, the exact number is not on record here.

For the first experiment, the target named is T1, GK-GKRP (interaction between glucokinase and glucokinase regulatory protein) (Homo sapiens, UniProt Q14397).
T1 construct: made in house; host or cells: GKRP: baculovirus system
T1 sequence (Q14397 1-625): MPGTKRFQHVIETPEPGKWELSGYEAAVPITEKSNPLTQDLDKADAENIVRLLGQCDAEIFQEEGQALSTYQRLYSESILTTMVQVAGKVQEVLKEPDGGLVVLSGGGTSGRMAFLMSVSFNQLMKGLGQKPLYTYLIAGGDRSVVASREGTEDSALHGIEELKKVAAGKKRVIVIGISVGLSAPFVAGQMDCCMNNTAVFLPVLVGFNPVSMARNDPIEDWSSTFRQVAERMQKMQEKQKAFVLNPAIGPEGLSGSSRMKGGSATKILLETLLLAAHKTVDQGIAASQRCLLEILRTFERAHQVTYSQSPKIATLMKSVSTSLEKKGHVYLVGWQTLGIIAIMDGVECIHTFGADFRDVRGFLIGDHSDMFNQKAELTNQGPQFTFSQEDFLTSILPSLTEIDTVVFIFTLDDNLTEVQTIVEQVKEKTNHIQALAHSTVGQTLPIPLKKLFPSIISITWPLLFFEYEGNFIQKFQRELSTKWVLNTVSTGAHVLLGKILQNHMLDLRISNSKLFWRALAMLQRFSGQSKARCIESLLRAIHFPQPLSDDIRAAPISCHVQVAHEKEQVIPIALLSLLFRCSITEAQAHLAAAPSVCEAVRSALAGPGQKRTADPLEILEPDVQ
Kind of experiment: GK-GKRP Binding Assay (Binding), AlphaScreen.
Conditions: not given
The method, then:
GK-GKRP Binding Assay Protocol (Binding)
This assay is used to directly measure the interaction between glucokinase (GK) and glucokinase regulatory protein (GKRP). Begin by preparing the following solutions. Assay Buffer: 20 mM Tris, pH 7.5/0.05% BSA/1 mM DTT/1 μM sorbitol-6-phosphate. […] Combine the following reagents in a white 96-well half area plate. Pipette 14 μl of the diluted avi-tagged GKRP into each well. Add 1 μl of compound to be tested and incubate at room temperature for 20 minutes. After 20 minutes, add 5 μl of assay buffer containing 6 nM GK-fluorescein. […] Incubate in a dark room for 2 hours at room temperature. After 2 hours read the plate using an Envision plate reader (Perkin Elmer, Waltham Mass.).
Recombinant human glucokinase (hepatic) was purified and formulated in 50 mM Tris (pH 7.5), 150 mM NaCl and 20 mM glucose previous to labeling with fluorescein. […] Unreacted dye was removed by extensive dialysis into the final formulation buffer: 25 mM Tris (pH 7.2), 150 mM NaCl, 10% glycerol and 2 mM DTT. The human glucokinase regulatory protein construct was designed with a C-terminal avitag and was expressed in a baculovirus system. Purified GKRP was incubated overnight with recombinant biotin ligase in the presence of D-biotin, ATP and MgCl2. GKRP was isolated from reaction components by chromatography on a Superdex 200 size exclusion column into: 50 mM HEPES, 150 mM NaCl and 5 mM DTT. […] Proteins were quantitated according to their calculated molar extinction coefficients at A280 and were stored at −80° C.
(§1) In the Examples, the assays are referred to as “LCMS/MS” or “Binding.”
The term IC50 denotes the concentration that gives 50% inhibition. The compound `O=S(=O)(N[C@@H](c1cc2ccccc2s1)c1ccccc1Cl)c1ccc2c(c1)OCC(O)CO2` (mixture of isomers) [Example 77, N—((R)-1-Benzothiophen-2-yl(2-chlorophenyl)methyl)-3-hydroxy-3,4-dihydro-2H-1,5-benzodioxepine-7-sulfonamide] returned a half-maximal inhibitory concentration (IC50) of 97 nM.
In the case of `COc1ccc(S(=O)(=O)NC(c2cc3ccccc3s2)c2ccccc2SC)cc1OC` (racemic) [Example 74], the IC50 turned out to be 2700 nM.

Still in this experiment, the particulars now being: avi-tagged GKRP, GK-fluorescein, AlphaScreen beads, 1 μM sorbitol-6-phosphate; read-out: GK-GKRP IC50 (Binding).
In the case of `O=S(=O)(N[C@@H](c1cc2ccccc2s1)c1ccccc1Cl)c1ccc2c(c1)OCC(F)CO2` (mixture of isomers) [Example 78, N—((R)-1-Benzothiophen-2-yl(2-chlorophenyl)methyl)-3-fluoro-3,4-dihydro-2H-1,5-benzodioxepine-7-sulfonamide], the IC50 stood at 47 nM.
For the compound `C[C@@](O)(c1ccnc(-c2cccc3cc([C@H](NS(=O)(=O)c4ccc5c(c4)OCCCO5)c4ccccc4Cl)sc23)c1)C(F)(F)F` [Example 83, N—((R)-(2-Chlorophenyl)(7-(4-((1R)-2,2,2-trifluoro-1-hydroxy-1-methylethyl)-2-pyridinyl)-1-benzothiophen-2-yl)methyl)-3,4-dihydro-2H-1,5-benzodioxepine-7-sulfonamide], the IC50 was found to be 38 nM.
On the same count and under the same terms, as for `O=S(=O)(N[C@@H](c1cc2cccc(-c3cc(C(O)(C(F)(F)F)C(F)(F)F)ccn3)c2s1)c1ccccc1Cl)c1ccc2c(c1)OCCCO2` [Example 81, N—((R)-(2-Chlorophenyl)(7-(4-(2,2,2-trifluoro-1-hydroxy-1-(trifluoromethyl)ethyl)-2-pyridinyl)-1-benzothiophen-2-yl)methyl)-3,4-dihydro-2H-1,5-benzodioxepine-7-sulfonamide], the figure is 87 nM; as for `COc1ccc(S(=O)(=O)N[C@@H](c2cc3cccc(-c4cc(C(O)(C(F)(F)F)C(F)(F)F)ccn4)c3s2)c2ccccc2Cl)cc1OC` [Example 82, N—((R)-(2-Chlorophenyl)(7-(4-(2,2,2-trifluoro-1-hydroxy-1-(trifluoromethyl)ethyl)-2-pyridinyl)-1-benzothiophen-2-yl)methyl)-3,4-dimethoxybenzenesulfonamide], 907 nM.
The same measure, in the same setting: as for `Nc1cccc(C(NS(=O)(=O)c2ccc3c(c2)OCCCO3)c2cc3ccccc3o2)n1` (racemic) [Example 79, N-((6-amino-2-pyridinyl)(1-benzofuran-2-yl)methyl)-3,4-dihydro-2H-1,5-benzodioxepine-7-sulfonamide], the figure is 98 nM; as for `Cc1cccnc1[C@H](NS(=O)(=O)c1ccc2c(c1)OCCCO2)c1cc2ccccc2o1` (single isomer, unassigned) [Example 26 Peak #1], over 33000 nM; as for `O=S(=O)(N[C@H](c1nc2cccnc2s1)c1ccccc1Cl)c1ccc2c(c1)OCCCO2` (single isomer, unassigned) [Example 68 Peak #1], 2000 nM.
As for `O=S(=O)(N[C@@H](c1ccccc1)c1cc2cccc(-c3ccccn3)c2s1)c1ccc2c(c1)OCCCO2` (single isomer, unassigned) [Example 71 Peak #1], the IC50 was 790 nM.
Still for that read-out and setting: as for `CSc1ccccc1[C@H](NS(=O)(=O)c1ccc2c(c1)OCCCO2)c1nc2cccnc2s1` (single isomer, unassigned) [Example 65 Peak #1], the figure is 900 nM; as for `O=S(=O)(N[C@@H](c1cc2ccccc2s1)c1ccccc1Cl)c1ccc2c(c1)OCC(F)(F)CO2` [Example 76, N—((R)-1-Benzothiophen-2-yl(2-chlorophenyl)methyl)-3,3-difluoro-3,4-dihydro-2H-1,5-benzodioxepine-7-sulfonamide], 620 nM; as for `C[C@](O)(c1ccnc(-c2cccc3cc([C@H](NS(=O)(=O)c4ccc5c(c4)OCCCO5)c4ccccc4Cl)sc23)c1)C(F)(F)F` [Example 85, N—((R)-(2-Chlorophenyl)(7-(4-((1S)-2,2,2-trifluoro-1-hydroxy-1-methylethyl)-2-pyridinyl)-1-benzothiophen-2-yl)methyl)-3,4-dihydro-2H-1,5-benzodioxepine-7-sulfonamide], 23 nM.
For `COc1ccc(S(=O)(=O)N[C@@H](c2cc3cccc(-c4cc([C@](C)(O)C(F)(F)F)ccn4)c3s2)c2ccccc2Cl)cc1OC` [Example 86, N—((R)-(2-Chlorophenyl)(7-(4-((1S)-2,2,2-trifluoro-1-hydroxy-1-methylethyl)-2-pyridinyl)-1-benzothiophen-2-yl)methyl)-3,4-dimethoxybenzenesulfonamide], the IC50 turned out to be 72 nM.
Consider `O=S(=O)(NC(c1ccccc1)c1cc2ccnc(Cl)c2s1)c1ccc2c(c1)OCCCO2` (racemic) [Example 80, N-((7-Chlorothieno[2,3-c]pyridin-2-yl)(phenyl)methyl)-3,4-dihydro-2H-1,5-benzodioxepine-7-sulfonamide], for which the IC50 worked out at 1100 nM.
In the case of `Nc1cc(C(NS(=O)(=O)c2ccc3c(c2)OCCCO3)c2cc3ccccc3o2)ccn1` (centres unmarked) [Example 87, N-((2-Amino-4-pyridinyl)(1-benzofuran-2-yl)methyl)-3,4-dihydro-2H-1,5-benzodioxepine-7-sulfonamide], the half-maximal inhibitory concentration (IC50) is 4880 nM.
The same measure, in the same setting: to `COc1ccc(S(=O)(=O)N[C@@H](c2cc3cccc(-c4cc([C@@](C)(O)C(F)(F)F)ccn4)c3s2)c2ccccc2Cl)cc1OC` [Example 84, N—((R)-(2-Chlorophenyl)(7-(4-((1R)-2,2,2-trifluoro-1-hydroxy-1-methylethyl)-2-pyridinyl)-1-benzothiophen-2-yl)methyl)-3,4-dimethoxybenzenesulfonamide] belongs 276 nM; to `COc1ccccc1[C@H](NS(=O)(=O)c1ccc2c(c1)OCCCO2)c1nc2cccnc2s1` (single isomer, unassigned) [Example 67 Peak #1], 2800 nM.
On the same count and under the same terms, as for `COc1cccnc1C(NS(=O)(=O)c1ccc2c(c1)OCCCO2)c1nc2cccnc2s1` (racemic) [Example 69, N-((3-methoxy-2-pyridinyl)([1,3]thiazolo[5,4-b]pyridin-2-yl)methyl)-3,4-dihydro-2H-1,5-benzodioxepine-7-sulfonamide], the figure is 1500 nM.

Another experiment has as its target T2, GK-GKRP (glucokinase / glucokinase regulatory protein) (Homo sapiens, UniProt Q14397).
T2 sequence (Q14397 1-625): T1 sequence (Q14397 1-625)
Nature of the experiment: GKRP LC MS/MS Biochemical Assay (LCMS/MS). To be noted: formation of 13C-glucose-6-phosphate from 13C-glucose by LC MS/MS, human His-hepatic GK, fructose-6-phosphate. The method, then:
GKRP LC MS/MS Biochemical Assay (LCMS/MS)
This assay is used to directly measure the formation of ^13C-glucose-6-phosphate from ^13C-glucose by LC MS/MS. Begin by preparing the following solutions: Compound Buffer (CB): 50 mM Tris, pH 7.5/4 mM MgCl2/6% DMSO/fresh 10 mM DTT from 1M frozen stock. Enzyme Buffer (EB): 50 mM Tris, pH 7.5/4 mM MgCl2/6% DMSO/fresh 0.1% BSA/fresh 0.01% Brij-35 (10% BSA and 1% Brij-35 stock). GK (Glucokinase) Working Stock (5×): Dilute human His-hepatic GK to 30 nM in EB buffer. […] Seal the plate and incubate for 30 minutes at room temperature while mixing. After 30 minutes add 10 μl of GK Working Stock (5×). Re-seal the plate and incubate for another 30 minutes at room temperature while mixing. After the second 30 minutes, stop the reaction by the addition of 50 μl of 100% acetonitrile, seal, and mix for 5-10 minutes. Run 10 μl of this sample through the LC MS/MS (API 3200, Applied Biosystems, Carlsbad, Calif.). […]
as §1
As usually defined, the EC50 is the concentration needed to bring the measured effect to its halfway point. The low end stands for greater potency, the high end for weaker potency. The compound `O=S(=O)(NC(c1cc2ccccc2o1)c1cccnc1Cl)c1ccc2c(c1)OCCCO2` (racemic) [Example 27, N-(1-benzofuran-2-yl(2-chloro-3-pyridinyl)methyl)-3,4-dihydro-2H-1,5-benzodioxepine-7-sulfonamide] yielded an EC50 of 1200 nM.
Still for that read-out and setting: as for `Cc1ccccc1[C@H](NS(=O)(=O)c1ccc2c(c1)OCCCO2)c1cc2ccccc2o1` (single isomer, unassigned) [Example 2 Peak #1], the figure is over 50000 nM.
Still for that read-out and setting: to `O=S(=O)(NC(c1cc2ccccc2o1)c1ccncc1Cl)c1ccc2c(c1)OCCCO2` (racemic) [Example 28, N-(1-benzofuran-2-yl(3-chloro-4-pyridinyl)methyl)-3,4-dihydro-2H-1,5-benzodioxepine-7-sulfonamide] belongs 1600 nM; to `Cc1ccccc1[C@@H](NS(=O)(=O)c1ccc2c(c1)OCCCO2)c1cc2ccccc2o1` (single isomer, unassigned) [Example 2 Peak #2], 43 nM.
